Experiment [1] has as its system MV4-11 cells, a human AML cell line. Put plainly: In vivo efficacy in MV4-11 disseminated xenograft model. On the set-up: species or system mice. The following applies: cytarabine alone 75 mg/kg QD×5 days 24-28. The method, then: (§1) The measured end-point was survival. […] Spontaneous deaths were recorded when they were discovered. For disseminated models, Tumor Growth Delay is calculated as T−C, where T is the median survival time (in days) of a treated group and C is the median survival time (in days) of the vehicle control group. The Percent Increased Life Span (% ILS) for disseminated models is calculated using the following formula: % ILS=(T−C)/C×100%.
The cyclophosphamide (Sigma, C0768, Lot # MKBX1822V) was dissolved in 0.9% NaCl and was administered intraperitoneally to the mice on day −3 and day −2 prior to MV4-11 cell inoculation.
Following cyclophosphamide treatment as described above, the mice were each injected intravenously in the lateral tail vein with 3×10^6 MV4-11 cells, a human AML cell line, in 100 μl of serum-free medium on day 0 in the study.
Cytarabine was given once a day (QD) at a dose of 75 mg/kg for five consecutive days (×5) and always administered on the same fixed set of days in the study time line: days 24, 25, 26, 27 and 28.
Lastly, Group K received QW×3 dosing of 1 μg/kg by DGN462 (0.0556 mg/kg by antibody) of a non-targeted control conjugate, Ab-DGN462, on a day 21, 28 and 35 dosing schedule (“Day 21”, with FcR blocking).

The test system of experiment [2] is EOL-1 cells, a human AML cell line. Put plainly: In vivo efficacy in EOL-1 subcutaneous xenograft model. The following applies: EOL-1 sc xenograft; IMGN779 5 μg/kg day 10; cytarabine 75 mg/kg days 10-14; text: long-term CRs on day 90.
Description: The mice were weighed twice a week and were monitored for clinical signs throughout the duration of the study. Animals were euthanized when hind leg paralysis was present, body weight decreased by >20% of pre-treatment weight, tumor ulceration occurred, or when any signs of distress were visible. Tumor volumes were measured one to two times weekly in three dimensions using a caliper. […] Tumor Growth Inhibition (T/C Value) was also assessed using the following formula: T/C (%)=(Median tumor volume of the treated/Median tumor volume of the control)×100%. Tumor volume was determined simultaneously for the treated (T) and the vehicle control (C) groups when tumor volume of the vehicle control reached a predetermined size (Bissery et al., Cancer Res. 51: 4845-52 (1991). The daily median tumor volume of each treated group was determined, including tumor-free mice (0 mm^3). According to NCI standards, a T/C≤42% is the minimum level of anti-tumor activity. A T/C<10% is considered a high anti-tumor activity level.
Female athymic nude mice were each inoculated with 1×10^7 EOL-1 cells, a human AML cell line, in 100 μl serum free medium subcutaneously in the right flank. […]
Another experiment deals with MOLM-13. Put plainly: In vitro CD33 expression post-treatment with cytarabine (flow cytometry, PE anti-CD33). Format: cell-based, human. The following applies: cytarabine 400 nM, 15, 24, 39, 48 hours post-treatment. The method, then:
(§2) CD33 expression was assessed post-treatment with cytarabine. In these experiments, two AML cell lines with cell surface display of CD33 and cytarabine sensitivity were used: MV4-11 and MOLM-13. The potency-relative doses were chosen for each treatment, relative to IC50s generated from 96-hour cytotoxicity assays. […] Time points at 15 hours, 24 hours, 39 hours, and 48 hours post-treatment with cytarabine were chosen for cell surface CD33 assessment. Cells were stained with, then washed of excess, PE-conjugated anti-CD33 mAb. Flow cytometric analyses of PE MFI were run on a FACSCanto II flow cytometer. PE-MFIs at each timepoint were normalized to PE-MFIs of untreated control samples and normalized PE-MFIs were considered to represent relative fold-changes in surface CD33 binding sites.

For the next experiment, the system named is MV4-11. Described as above. The format is cell-based, human. The following applies: cytarabine 2,500 nM, 15, 24, 39, 48 hours post-treatment. As for the experimental part: as §2
The subject of experiment [3] is Molm-13 cells, a human AML cell line. Put plainly: In vivo efficacy in Molm-13 disseminated xenograft model. On the set-up: species or system mice. As to conditions: cytarabine alone 75 mg/kg QD×5 days 7-11. As for the experimental part: as §1
The cyclophosphamide (Sigma, C0768, Lot # MKBX1822V) was dissolved in 0.9% NaCl and was administered intraperitoneally to the mice on day −2 prior to Molm-13 cell inoculation on day 0.
Following cyclophosphamide treatment as described above, the mice were each injected intravenously in the lateral tail vein with 2×10^5 Molm-13 cells, a human AML cell line, in 100 μl of serum-free medium on day 0 in the study.
Cytarabine, in contrast, was given once a day (QD) at a dose of 75 mg/kg for five consecutive days (×5) and always on a fixed set of days in the study time line: Days 7, 8, 9, 10 and 11.
The results are represented in Table 5 (below) and in FIG. 3.

In another experiment the target is CD33 (Homo sapiens, UniProt P20138). As to conditions: CD33 on the surface of CD33-positive cells; cited from earlier work.
Chain of CD33 (P20138 18-364): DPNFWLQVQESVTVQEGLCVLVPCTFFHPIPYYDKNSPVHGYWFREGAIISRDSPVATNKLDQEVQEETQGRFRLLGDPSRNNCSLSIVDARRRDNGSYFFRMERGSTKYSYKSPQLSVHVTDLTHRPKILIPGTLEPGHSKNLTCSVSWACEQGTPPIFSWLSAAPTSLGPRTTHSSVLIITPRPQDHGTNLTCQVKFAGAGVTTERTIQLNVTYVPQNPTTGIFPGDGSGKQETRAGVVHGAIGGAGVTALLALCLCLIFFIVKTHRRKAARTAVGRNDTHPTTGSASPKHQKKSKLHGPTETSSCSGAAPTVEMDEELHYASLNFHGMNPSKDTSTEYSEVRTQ

As to `Nc1ccn([C@@H]2O[C@H](CO)[C@@H](O)[C@@H]2O)c(=O)n1` [Cytarabine, cytosine arabinoside], the “Median Survival Time” value in experiment [1] (NOD SCID mice) was found to be 46 days; in experiment [3] (NOD SCID mice), 20 days. In addition, the “% Increased Life Span (ILS)” value in experiment [1] and in experiment [3] was 0% throughout. In addition, the Result entry in experiment [1] and in experiment [3] was “Inactive” in each case. Besides, the “Tumor Growth Delay (T-C, Days)” value in experiment [1] and in experiment [3] was 0 days throughout. For the same compound, the “Tumor Free Survivors (Day 90)” value in experiment [2] is listed as 0/6. Also, the “CD33 transcription and cell surface expression” value is “dose- and time-dependent increase” with MOLM-13; “dose- and time-dependent increase” with MV4-11.
Consider “My9-6: murine anti-CD33 antibody from which huMy9-6 is derived”, for which the “binding affinity to CD33” value with CD33 is reported as “high affinity”.

These data come from patent US20190160089A1, “COMBINATION TREATMENT WITH ANTIBODY-DRUG CONJUGATES AND CYTARABINE” (IMMUNOGEN, INC., priority 2017, published 2019).
